Values after ≈ are worked out from the molar mass of the structure shown.
Columns and labels:
[1] = system: Staphylococcus aureus (ATCC 29213); assay: MIC by microbroth dilution, Staphylococcus aureus ATCC 29213; type: cell-based; conditions: ATCC29213
Procedure: (§1) Shown below are the microbiological activities of representative compounds of Formula I of the invention. The compounds were tested by the microbroth dilution method (National committee for Clinical Laboratory Standards, 2011, […]-08) and the Minimum Inhibitory Concentration (MIC) was determined.

[2] = system: Methicillin resistant Staphylococcus aureus (ATCC 33591); assay: MIC by microbroth dilution, MRSA ATCC 33591; type: cell-based; conditions: ATCC33591, Formula I compounds, read-out: MIC Methicillin resistant Staphylococcus aureus (ATCC 33591)
Procedure: (§2) Shown below are the microbiological activities of representative compounds of Formula I of the invention. The compounds were tested by the microbroth dilution method (National committee for Clinical Laboratory Standards, 2011, M07-08) and the Minimum Inhibitory Concentration (MIC) was determined.
(§3) Analysis of microbiological activity of compounds shown below are the microbiological activities of representative compounds of Formula II of the invention. The compounds were tested by the microbroth dilution method as per the reference in Example 1.

[3] = system: Streptococcus pneumoniae (ATCC 6301); assay: MIC by microbroth dilution, Streptococcus pneumoniae ATCC 6301; type: cell-based; conditions: ATCC6301
Procedure: as §1

[4] = system: Enterococcus faecalis (ATCC 29212); assay: MIC by microbroth dilution, Enterococcus faecalis ATCC 29212; type: cell-based; conditions: ATCC29212
Procedure: as §1

[5] = system: Moraxella catarrhalis (ATCC 8176); assay: MIC by microbroth dilution, Moraxella catarrhalis ATCC 8176; type: cell-based; conditions: ATCC8176
Procedure: as §1

E. coli (ATCC 25922) = assay: MIC by microbroth dilution, E. coli ATCC 25922; type: cell-based; conditions: Escherichia coli, ATCC25922, Formula I compounds, read-out: MIC E. coli (ATCC 25922)
Procedure: as §2, §3

[6] = system: K. pneumoniae (ATCC 700603); assay: MIC by microbroth dilution, K. pneumoniae ATCC 700603; type: cell-based; conditions: Klebsiella pneumoniae, ATCC700603, Formula I compounds
Procedure: as §2, §3

E. coli Gyrase = biological target: T1, E. coli Gyrase (Escherichia coli, UniProt P0AES4+P0AES6); assay: in vitro Gyrase supercoiling assay (Inspiralis kit); type: biochemical; conditions: 1 hour at 37° C., read-out: % inhibition of DNA supercoiling activity; for inhibition at 0.1 µM: 0.1 μM compound; for inhibition at 1 µM: 1 μM compound
T1 construct: purchased Inspiralis
T1 sequence (P0AES4 whole entry, one chain of several): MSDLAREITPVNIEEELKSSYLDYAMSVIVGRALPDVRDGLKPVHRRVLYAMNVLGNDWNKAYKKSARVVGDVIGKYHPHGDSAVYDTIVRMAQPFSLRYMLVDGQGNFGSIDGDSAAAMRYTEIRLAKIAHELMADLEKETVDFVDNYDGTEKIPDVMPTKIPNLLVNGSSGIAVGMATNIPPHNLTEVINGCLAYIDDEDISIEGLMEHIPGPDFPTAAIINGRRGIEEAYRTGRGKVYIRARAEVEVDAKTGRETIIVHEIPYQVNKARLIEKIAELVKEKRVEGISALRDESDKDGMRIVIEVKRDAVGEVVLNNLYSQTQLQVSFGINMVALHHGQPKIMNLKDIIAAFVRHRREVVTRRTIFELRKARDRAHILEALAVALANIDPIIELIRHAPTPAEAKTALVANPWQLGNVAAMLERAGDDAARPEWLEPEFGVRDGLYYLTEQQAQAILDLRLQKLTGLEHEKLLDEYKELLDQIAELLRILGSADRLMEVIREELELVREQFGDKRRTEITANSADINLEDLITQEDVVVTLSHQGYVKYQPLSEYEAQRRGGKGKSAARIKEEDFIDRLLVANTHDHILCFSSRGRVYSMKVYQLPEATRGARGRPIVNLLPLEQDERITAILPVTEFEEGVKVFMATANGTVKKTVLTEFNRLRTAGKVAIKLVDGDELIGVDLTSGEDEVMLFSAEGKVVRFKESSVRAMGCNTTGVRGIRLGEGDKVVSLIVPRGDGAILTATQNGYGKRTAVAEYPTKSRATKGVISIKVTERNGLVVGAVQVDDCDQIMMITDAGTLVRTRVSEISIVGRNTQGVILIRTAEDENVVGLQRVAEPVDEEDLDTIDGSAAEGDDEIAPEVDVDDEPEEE
Procedure: To test for target specificity, the activity of compounds was evaluated in an in vitro Gyrase assay using recombinant Gyrase protein as per the instructions of the assay kit (Inspiralis). The assay measures the ability of E. coli Gyrase to convert relaxed plasmid DNA into the supercoiled form. The enzyme is incubated with the substrate (relaxed DNA) in the presence and absence of compounds for 1 hour at 37° C. and the DNA is run on a gel at low voltage for several hours. The gel is then stained with Ethidium bromide and DNA in the different forms is quantified using DNA imaging and quantification software (Image Lab). The activity of the enzyme is proportional to the amount of supercoiled form detected.

| Compound | MIC [1] | MIC [2] | MIC [3] | MIC [4] | MIC [5] | MIC (E. coli (ATCC 25922)) | MIC [6] | inhibition at 0.1 µM (E. coli Gyrase) | inhibition at 1 µM (E. coli Gyrase) |
| --- | --- | --- | --- | --- | --- | --- | --- | --- | --- |
| COc1ccc2ncc(C#N)c(CCN3C4CCC3CC(NCc3ccc5c(c3)NC(=O)CS5)C4)c2c1 (stereo not shown) [VT-03-00026] | 2 µg/mL (≈ 3.89 µM) | 4 µg/mL (≈ 7.79 µM) | 1 µg/mL (≈ 1.95 µM) | 8 µg/mL (≈ 15.6 µM) | 2 µg/mL (≈ 3.89 µM) | 32 µg/mL (≈ 62.3 µM) | 64 µg/mL (≈ 125 µM) | – | – |
| COc1ccc2ncc(C#N)c(CCN3C[C@@H]4C[C@H]3CN4CNc3ccc4c(c3)OCCO4)c2c1 [VT-03-00028] | 0.25 µg/mL (≈ 0.53 µM) | 0.5 µg/mL (≈ 1.06 µM) | 0.25 µg/mL (≈ 0.53 µM) | 1 µg/mL (≈ 2.12 µM) | 4 µg/mL (≈ 8.48 µM) | > 32 µg/mL | > 32 µg/mL | – | – |
| COc1ccc2ncc(C#N)c(CCN3C4CCC3CC(NCc3ccc5c(c3)NC(=O)CO5)C4)c2c1 (stereo not shown) [VT-03-00030] | 2 µg/mL (≈ 4.02 µM) | 4 µg/mL (≈ 8.04 µM) | 4 µg/mL (≈ 8.04 µM) | 4 µg/mL (≈ 8.04 µM) | 1 µg/mL (≈ 2.01 µM) | 8 µg/mL (≈ 16.1 µM) | > 32 µg/mL | – | – |
| COc1ccc2ncc(C#N)c(CCN3C4CCC3CC(NCc3cc5c(cc3F)OCCO5)C4)c2c1 (stereo not shown) [VT-03-00031] | 1 µg/mL (≈ 1.99 µM) | 2 µg/mL (≈ 3.98 µM) | 1 µg/mL (≈ 1.99 µM) | 2 µg/mL (≈ 3.98 µM) | 4 µg/mL (≈ 7.96 µM) | 16 µg/mL (≈ 31.8 µM) | > 32 µg/mL | – | – |
| COc1ccc2ncc(C#N)c(N3CC(N4CCC(NCc5ccc6c(c5)OCCO6)CC4)C3)c2c1 [VT-03-00032] | 2 µg/mL (≈ 4.12 µM) | 4 µg/mL (≈ 8.24 µM) | 4 µg/mL (≈ 8.24 µM) | 8 µg/mL (≈ 16.5 µM) | 8 µg/mL (≈ 16.5 µM) | > 32 µg/mL | > 32 µg/mL | – | – |
| COc1ccc2ncc(C#N)c(CCN3CCC(NCc4ccc([N+](=O)[O-])cc4)CC3)c2c1 [VT-03-00045] | 0.06 µg/mL (≈ 0.135 µM) | 0.12 µg/mL (≈ 0.269 µM) | 0.5 µg/mL (≈ 1.12 µM) | 4 µg/mL (≈ 8.98 µM) | 2 µg/mL (≈ 4.49 µM) | 32 µg/mL (≈ 71.8 µM) | – | 96.5% | 96.5% |
| COc1ccc2ncc(C#N)c(CCN3CCC(NCc4ccc(F)c([N+](=O)[O-])c4)CC3)c2c1 [VT-03-00048] | 0.12 µg/mL (≈ 0.259 µM) | 0.5 µg/mL (≈ 1.08 µM) | 0.5 µg/mL (≈ 1.08 µM) | 4 µg/mL (≈ 8.63 µM) | 1 µg/mL (≈ 2.16 µM) | 8 µg/mL (≈ 17.3 µM) | > 32 µg/mL | 97.5% | 97.3% |
| COc1ccc2ncc(C#N)c(CCN3CCC(NCc4cccc([N+](=O)[O-])c4)CC3)c2c1 [VT-03-00049] | 0.12 µg/mL (≈ 0.269 µM) | 0.5 µg/mL (≈ 1.12 µM) | 0.5 µg/mL (≈ 1.12 µM) | 2 µg/mL (≈ 4.49 µM) | 8 µg/mL (≈ 18 µM) | 32 µg/mL (≈ 71.8 µM) | > 32 µg/mL | – | – |
| COc1ccc2ncc(C#N)c(CCN3CCC(NCc4cc([N+](=O)[O-])ccc4F)CC3)c2c1 [VT-03-00050] | 0.25 µg/mL (≈ 0.539 µM) | 0.5 µg/mL (≈ 1.08 µM) | 4 µg/mL (≈ 8.63 µM) | 4 µg/mL (≈ 8.63 µM) | 4 µg/mL (≈ 8.63 µM) | 16 µg/mL (≈ 34.5 µM) | > 16 µg/mL | – | – |
| COc1ccc2ncc(C#N)c(CCN3CCC(NCc4ccc([N+](=O)[O-])o4)CC3)c2c1 [VT-03-00051] | 2 µg/mL (≈ 4.59 µM) | 4 µg/mL (≈ 9.19 µM) | > 4 µg/mL | 4 µg/mL (≈ 9.19 µM) | 2 µg/mL (≈ 4.59 µM) | > 32 µg/mL | > 16 µg/mL | – | – |
| COc1ccc2ncc(C#N)c(CCN3CCC(NCc4ccc([N+](=O)[O-])c(F)c4)CC3)c2c1 [VT-03-00054] | 0.03 µg/mL (≈ 0.0647 µM) | 0.12 µg/mL (≈ 0.259 µM) | 0.5 µg/mL (≈ 1.08 µM) | 2 µg/mL (≈ 4.31 µM) | 1 µg/mL (≈ 2.16 µM) | 8 µg/mL (≈ 17.3 µM) | 32 µg/mL (≈ 69 µM) | – | – |
| COc1ccc2ncc(C#N)c(CCN3CCC(NC(=O)c4ccc([N+](=O)[O-])c(F)c4)CC3)c2c1 [VT-03-00055] | 1 µg/mL (≈ 2.09 µM) | 4 µg/mL (≈ 8.38 µM) | 0.03 µg/mL (≈ 0.0628 µM) | 0.25 µg/mL (≈ 0.524 µM) | > 32 µg/mL | > 32 µg/mL | > 32 µg/mL | 52.7% | 71% |
| COc1ccc2ncc(=O)n(CCN3CCC(NCc4ccc(F)c([N+](=O)[O-])c4)CC3)c2c1 [VT-03-00056] | 0.25 µg/mL (≈ 0.549 µM) | 0.5 µg/mL (≈ 1.1 µM) | 0.25 µg/mL (≈ 0.549 µM) | 8 µg/mL (≈ 17.6 µM) | 1 µg/mL (≈ 2.2 µM) | 4 µg/mL (≈ 8.78 µM) | > 32 µg/mL | – | – |
| COc1ccc2ncc(C#N)c(CCN3CCC(NCc4cc([N+](=O)[O-])ccc4O)CC3)c2c1 [VT-03-00059] | 0.25 µg/mL (≈ 0.542 µM) | 1 µg/mL (≈ 2.17 µM) | 2 µg/mL (≈ 4.33 µM) | 8 µg/mL (≈ 17.3 µM) | 8 µg/mL (≈ 17.3 µM) | > 32 µg/mL | > 32 µg/mL | – | – |
| COc1ccc2ncc(OCCN3CCC(NCc4ccc(C)c([N+](=O)[O-])c4)CC3)nc2c1 [VT-03-00062a] | 0.5 µg/mL (≈ 1.11 µM) | 1 µg/mL (≈ 2.21 µM) | 0.5 µg/mL (≈ 1.11 µM) | 4 µg/mL (≈ 8.86 µM) | 2 µg/mL (≈ 4.43 µM) | 4 µg/mL (≈ 8.86 µM) | > 32 µg/mL | – | – |
| COc1ccc2ncc(C#N)c(CCN3CCC(NCc4ccc(N(C)C)c([N+](=O)[O-])c4)CC3)c2c1 [VT-03-00064] | 0.12 µg/mL (≈ 0.246 µM) | 0.25 µg/mL (≈ 0.512 µM) | 0.12 µg/mL (≈ 0.246 µM) | 2 µg/mL (≈ 4.09 µM) | 0.25 µg/mL (≈ 0.512 µM) | 4 µg/mL (≈ 8.19 µM) | > 32 µg/mL | 89.3% | 98.1% |
| Cc1ccc(CNC2CCN(CCn3c(=O)ccc4ccc(C#N)cc43)CC2)cc1[N+](=O)[O-] [VT-03-00065] | 0.25 µg/mL (≈ 0.561 µM) | 1 µg/mL (≈ 2.24 µM) | 4 µg/mL (≈ 8.98 µM) | > 32 µg/mL | > 32 µg/mL | > 32 µg/mL | > 32 µg/mL | – | – |
| COc1ccc2ncc(=O)n(CCN3CCC(NCc4ccc(Br)c([N+](=O)[O-])c4)CC3)c2c1 [VT-03-00066] | 0.5 µg/mL (≈ 0.968 µM) | 1 µg/mL (≈ 1.94 µM) | 1 µg/mL (≈ 1.94 µM) | 4 µg/mL (≈ 7.75 µM) | 4 µg/mL (≈ 7.75 µM) | 16 µg/mL (≈ 31 µM) | > 32 µg/mL | 55.9% | 89.9% |
| COc1ccc2ncc(C#N)c(CCN3CCC(NCc4cc(C)cc([N+](=O)[O-])c4C)CC3)c2c1 [VT-03-00075] | 0.12 µg/mL (≈ 0.253 µM) | 0.12 µg/mL (≈ 0.253 µM) | 0.06 µg/mL (≈ 0.127 µM) | 0.5 µg/mL (≈ 1.06 µM) | 0.5 µg/mL (≈ 1.06 µM) | 4 µg/mL (≈ 8.45 µM) | > 16 µg/mL | – | – |
| CCc1ccc(CNC2CCN(CCc3c(C#N)cnc4ccc(OC)cc34)CC2)cc1[N+](=O)[O-] [VT-03-00076] | 0.015 µg/mL (≈ 0.0317 µM) | 0.03 µg/mL (≈ 0.0633 µM) | 0.03 µg/mL (≈ 0.0633 µM) | 0.25 µg/mL (≈ 0.528 µM) | 0.25 µg/mL (≈ 0.528 µM) | 2 µg/mL (≈ 4.22 µM) | > 16 µg/mL | – | – |
| COc1ccc2ncc(C#N)c(CCN3CCC(NCc4cc([N+](=O)[O-])ccn4)CC3)c2c1 [VT-03-00079] | 2 µg/mL (≈ 4.48 µM) | 2 µg/mL (≈ 4.48 µM) | 2 µg/mL (≈ 4.48 µM) | 32 µg/mL (≈ 71.7 µM) | 4 µg/mL (≈ 8.96 µM) | 32 µg/mL (≈ 71.7 µM) | – | 16.7% | 87.6% |

Source: US20170197935A1, “INHIBITORS OF DNA GYRASE FOR THE TREATMENT OF BACTERIAL INFECTIONS” (Vitas Pharma Research Private Limited, priority 2012, published 2017)
